From patent US12528802B2, “Heterocyclic compound” (Takeda Pharmaceutical Company Limited, priority 2019, dated 2026)

target: T1, glucosylceramide synthase (Homo sapiens, UniProt Q16739); test: Glucosylceramide synthase (GCS) enzyme assay, microsome fraction, C8 glucosylceramide quantified by Rapidfire MS/MS; assay type: biochemical; details: test compound 10 μM; 1.7 μM UDP-glucose, 3 μM C8 ceramide; room temperature 60 min; read-out: GCS enzyme inhibitory rate at 10 μM (%) (% of control)
T1 construct: made in house; host or cells: Expi293F cells (transient expression, pcDNA3.3-TOPO vector); microsome fraction used as enzyme source
T1 sequence (Q16739 1-394): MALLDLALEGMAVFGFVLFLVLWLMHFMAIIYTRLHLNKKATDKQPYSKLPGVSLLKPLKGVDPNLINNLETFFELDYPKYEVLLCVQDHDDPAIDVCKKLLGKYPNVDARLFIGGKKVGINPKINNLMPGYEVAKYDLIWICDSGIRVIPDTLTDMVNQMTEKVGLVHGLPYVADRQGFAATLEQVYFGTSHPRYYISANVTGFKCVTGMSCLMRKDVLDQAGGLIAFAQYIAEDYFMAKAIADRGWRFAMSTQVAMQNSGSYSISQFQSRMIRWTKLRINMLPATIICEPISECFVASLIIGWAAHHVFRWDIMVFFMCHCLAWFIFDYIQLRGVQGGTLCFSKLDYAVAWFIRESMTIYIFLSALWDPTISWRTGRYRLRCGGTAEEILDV
Outline: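 Test compound, 10 μM final, was run against human GCS from transfected Expi293F microsome fractions, using substrate solution of 6 μM C8 ceramide (in DOPC liposomes) plus 3.4 μM UDP-glucose, pH 7.5 Tris buffer, 60 min, room temperature. Product C8 glucosylceramide measured by Rapidfire MS/MS against an internal standard, % inhibition referenced to no-enzyme and DMSO wells.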

| Compound | inhibition at 10 µM [%] |
| --- | --- |
| CC(C)(O)COc1ccc(N2Cc3c(ccnc3-c3ccccc3OCC(F)F)C2=O)nc1 [Example 306, 4-[2-(2,2-difluoroethoxy)phenyl]-2-[5-(2-hydroxy-2-methylpropoxy)pyridin-2-yl]-2,3-dihydro-1H-pyrrolo [3,4-c]pyridin-1-one] | 99 |
| CC(C)(O)Cc1ccc(N2Cc3c(ccnc3-c3ccncc3OCC(F)(F)F)C2=O)cc1 [Example 307, 2-[4-(2-hydroxy-2-methylpropyl)phenyl]-4-[3-(2,2,2-trifluoroethoxy)pyridin-4-yl]-2,3-dihydro-1H-pyrrolo [3,4-c]pyridin-1-one] | 91 |
| Cn1nc(N2Cc3c(ccnc3-c3ccc(F)cc3OCC(F)(F)F)C2=O)cc1OC(F)F [Example 309, 2-[5-(difluoromethoxy)-1-methyl-1H-pyrazol-3-yl]-4-[4-fluoro-2-(2,2,2-trifluoroethoxy)phenyl]-2,3-dihydro-1H-pyrrolo[3,4-c]pyridin-1-one] | 60 |
| O=C1c2ccc(=O)n(-c3ccc(F)cc3OCC(F)(F)F)c2CN1c1ccc(OC(F)F)cn1 [Example 310, 6-[5-(difluoromethoxy)pyridin-2-yl]-1-[4-fluoro-2-(2,2,2-trifluoroethoxy)phenyl]-6,7-dihydro-1H-pyrrolo[3,4-b]pyridine-2,5-dione] | 99 |
| O=C1c2ccnc(-c3ccccc3OCC(F)(F)F)c2CN1c1ccc(C2(O)CC(F)(F)C2)nc1 [Example 316, 2-[6-(3,3-difluoro-1-hydroxycyclobutyl)pyridin-3-yl]-4-[2-(2,2,2-trifluoroethoxy)phenyl]-2,3-dihydro-1H-pyrrolo[3,4-c]pyridin-1-one] | 99 |
| Cn1nc(N2Cc3c(ccnc3-c3ccc(F)cc3OCC(F)(F)F)C2=O)cc1C#N [Example 318, 3-{4-[4-fluoro-2-(2,2,2-trifluoroethoxy)phenyl]-1-oxo-1,3-dihydro-2H-pyrrolo [3,4-c]pyridin-2-yl}-1-methyl-1H-pyrazole-5-carbonitrile] | 52 |
| CC(=O)c1ccc(N2Cc3c(ccnc3-c3c(F)cccc3OCC(F)(F)F)C2=O)cc1 [Example 319, 2-(4-acetylphenyl)-4-[2-fluoro-6-(2,2,2-trifluoroethoxy)phenyl]-2,3-dihydro-1H-pyrrolo[3,4-c]pyridin-1-one] | 97 |
| CC(C)(O)c1ccc(N2Cc3c(ccnc3-c3c(F)cc(F)cc3OCC(F)(F)F)C2=O)cc1 [Example 320, 4-[2,4-difluoro-6-(2,2,2-trifluoroethoxy)phenyl]-2-[4-(2-hydroxypropan-2-yl)phenyl]-2,3-dihydro-1H-pyrrolo[3,4-c]pyridin-1-one] | 99 |
| CC(C)(O)c1ccc(N2Cc3c(ccnc3-c3cc(F)c(F)cc3OCC(F)(F)F)C2=O)cc1 [Example 322, 4-[4,5-difluoro-2-(2,2,2-trifluoroethoxy)phenyl]-2-[4-(2-hydroxypropan-2-yl)phenyl]-2,3-dihydro-1H-pyrrolo [3,4-c]pyridin-1-one] | 95 |
| Cc1cc2c(c(-c3ccccc3OCC(F)(F)F)n1)CN(c1ccc(C(C)(C)O)nc1)C2=O [Example 326, 2-[6-(2-hydroxypropan-2-yl)pyridin-3-yl]-6-methyl-4-[2-(2,2,2-trifluoroethoxy)phenyl]-2,3-dihydro-1H-pyrrolo[3,4-c]pyridin-1-one] | 99 |
| CC(C)(O)c1ccc(N2Cc3c(cc(C(F)F)nc3-c3ccccc3OCC(F)(F)F)C2=O)cn1 [Example 328, 6-(difluoromethyl)-2-[6-(2-hydroxypropan-2-yl)pyridin-3-yl]-4-[2-(2,2,2-trifluoroethoxy)phenyl]-2,3-dihydro-1H-pyrrolo[3,4-c]pyridin-1-one] | 100 |
| COC(=O)c1ccc(N2CC3=C(OC[C@H](C)N=C3c3ccccc3OCC(F)(F)F)C2=O)cc1 [Example 331, methyl 4-{(3S)-3-methyl-8-oxo-5-[2-(2,2,2-trifluoroethoxy)phenyl]-2,3,6,8-tetrahydro-7H-pyrrolo [3,4-f][1,4]oxazepin-7-yl}benzoate] | 91 |
| COC(=O)c1ccc(N2CC3=C(OC[C@@H](C)N=C3c3ccccc3OCC(F)(F)F)C2=O)cc1 [Example 333, methyl 4-{(3R)-3-methyl-8-oxo-5-[2-(2,2,2-trifluoroethoxy)phenyl]-2,3,6,8-tetrahydro-7H-pyrrolo [3,4-f][1,4]oxazepin-7-yl}benzoate] | 97 |
| CC(=O)c1ccc(N2CC3=C(OC[C@H](C)N=C3c3ccccc3OCC(F)(F)F)C2=O)cc1 [Example 334, (3S)-7-(4-acetylphenyl)-3-methyl-5-[2-(2,2,2-trifluoroethoxy)phenyl]-2,3,6,7-tetrahydro-8H-pyrrolo [3,4-f][1,4]oxazepin-8-one] | 88 |
| COC(=O)c1ccc(N2CC3=C(OCCN=C3c3ccccc3OCC(F)(F)F)C2=O)cc1 [Example 335, methyl 4-{8-oxo-5-[2-(2,2,2-trifluoroethoxy)phenyl]-2,3,6,8-tetrahydro-7H-pyrrolo[3,4-f] [1,4]oxazepin-7-yl}benzoate] | 95 |
| CC(C)(O)C(F)(F)c1ccc(N2Cc3c(ccnc3-c3ccccc3OCC(F)F)C2=O)cc1 [Example 339, 4-[2-(2,2-difluoroethoxy)phenyl]-2-[4-(1,1-difluoro-2-hydroxy-2-methylpropyl)phenyl]-2,3-dihydro-1H-pyrrolo[3,4-c]pyridin-1-one] | 99 |
| CC(C)(O)c1cc2c(c(-c3ccccc3OCC(F)(F)F)n1)CN(c1ccc(OCC(F)(F)F)cc1)C2=O [Example 343, 6-(2-hydroxypropan-2-yl)-4-[2-(2,2,2-trifluoroethoxy)phenyl]-2-[4-(2,2,2-trifluoroethoxy)phenyl]-2,3-dihydro-1H-pyrrolo[3,4-c]pyridin-1-one] | 100 |
| O=C1c2ccnc(-c3ccccc3OCC(F)(F)F)c2CN1c1ccc(O)cc1 [Example 347, 2-(4-hydroxyphenyl)-4-[2-(2,2,2-trifluoroethoxy)phenyl]-2,3-dihydro-1H-pyrrolo[3,4-c]pyridin-1-one] | 76 |

Further lines, results first:

| inhibition at 10 µM [%] | Compound |
| --- | --- |
| 100 | Cn1cc2c(c(-c3ccccc3OCC(F)(F)F)c1=O)CN(c1ccc(C(C)(C)O)cc1)C2=O [Example 321, 2-[4-(2-hydroxypropan-2-yl)phenyl]-5-methyl-7-[2-(2,2,2-trifluoroethoxy)phenyl]-1H-pyrrolo[3,4-c]pyridine-3,6(2H,5H)-dione] |
| 99 | CC(C)(O)c1ccc(N2Cc3c(ccnc3-c3cc(F)ccc3OCC(F)(F)F)C2=O)cc1 [Example 323, 4-[5-fluoro-2-(2,2,2-trifluoroethoxy)phenyl]-2-[4-(2-hydroxypropan-2-yl)phenyl]-2,3-dihydro-1H-pyrrolo[3,4-c]pyridin-1-one] |
| 100 | CC(C)(O)c1ccc(N2Cc3c(cc(C(F)F)nc3-c3ccccc3OCC(F)(F)F)C2=O)cc1 [Example 327, 6-(difluoromethyl)-2-[4-(2-hydroxypropan-2-yl)phenyl]-4-[2-(2,2,2-trifluoroethoxy)phenyl]-2,3-dihydro-1H-pyrrolo[3,4-c]pyridin-1-one] |
| 100 | COCc1cc2c(c(-c3ccccc3OCC(F)(F)F)n1)CN(c1ccc(C(C)(C)O)cc1)C2=O [Example 330, 2-[4-(2-hydroxypropan-2-yl)phenyl]-6-(methoxymethyl)-4-[2-(2,2,2-trifluoroethoxy)phenyl]-2,3-dihydro-1H-pyrrolo[3,4-c]pyridin-1-one] |
| 98 | CC(C)(O)c1ccc(N2Cc3c(cc(Br)c(=O)n3-c3ccccc3OCC(F)(F)F)C2=O)cc1 [Example 336, 3-bromo-6-[4-(2-hydroxypropan-2-yl)phenyl]-1-[2-(2,2,2-trifluoroethoxy)phenyl]-6,7-dihydro-1H-pyrrolo[3,4-b]pyridine-2,5-dione] |
| 98 | Cc1cc2c(n(-c3ccccc3OCC(F)(F)F)c1=O)CN(c1ccc(C(C)(C)O)cc1)C2=O [Example 337, 6-[4-(2-hydroxypropan-2-yl)phenyl]-3-methyl-1-[2-(2,2,2-trifluoroethoxy)phenyl]-6,7-dihydro-1H-pyrrolo[3,4-b]pyridine-2,5-dione] |
| 100 | Cc1cc2c(c(-c3ccccc3OCC(F)(F)F)n1)CN(c1ccc(C(F)(F)CO)cc1)C2=O [Example 338, 2-[4-(1,1-difluoro-2-hydroxyethyl)phenyl]-6-methyl-4-[2-(2,2,2-trifluoroethoxy)phenyl]-2,3-dihydro-1H-pyrrolo [3,4-c]pyridin-1-one] |
| 99 | CC(C)(O)C(F)(F)c1ccc(N2Cc3c(ccnc3-c3ccccc3OCC(F)(F)F)C2=O)cc1 [Example 340, 2-[4-(1,1-difluoro-2-hydroxy-2-methylpropyl)phenyl]-4-[2-(2,2,2-trifluoroethoxy)phenyl]-2,3-dihydro-1H-pyrrolo[3,4-c]pyridin-1-one] |
| 100 | Cc1cc2c(c(-c3ccccc3OCC(F)(F)F)n1)CN(c1ccc(C(F)(F)C(C)(C)O)cc1)C2=O [Example 342, 2-[4-(1,1-difluoro-2-hydroxy-2-methylpropyl)phenyl]-6-methyl-4-[2-(2,2,2-trifluoroethoxy)phenyl]-2,3-dihydro-1H-pyrrolo [3,4-c]pyridin-1-one] |
